Assay: Pharmacokinetic evaluation of QC-56 in mouse brain
Format: in vivo
Details: brain tissue, i.v. tail vein injection
Text: Regular male CD1 mice, 6 weeks old, were obtained from Charles River Laboratories, St. Zotique, PQ, Canada. The mice weighed 22-28 g. The experiments were approved by the Animal Care Committee, McGill University, Montreal, Quebec. The animals were housed in individual cages and were fed standard rodent chow and water ad libitum. […] In this case, mice were anesthetized using isoflurane-based system (DISPOMED, MODUFLEX COMPACT NRB, 3975-0800-000). […] Serum was collected after the samples were centrifuged 2200×, 4° C. for 20 minutes and stored at −80° C. until analysis. For the brain tissue collection, skin of mice was removed and brain was carefully dissected out from the skull, transferred into a Petri dish, briefly washed with ice-cold phosphate-buffered saline (PBS), and immediately stored at −80° C. until further analysis.
The assay of QC-56 in mouse brain samples was carried out using a qualified LC/MS/MS assay method.

SMILES: Brc1ccc(CCC2(Cn3ccnc3)OCCO2)cc1.Cl [QC-56, 1-((2-(2-(4-Bromophenyl)ethyl)-1,3-dioxolan-2-yl)methyl)-1H-imidazole hydrochloride]
- time of maximal brain concentration: 1 min
- AUC0→3 hrs (male CD-1 mice): 60.3 µg·h/g
- AUC0→inf (male CD-1 mice): 158 µg·h/g
- T1/2z (male CD-1 mice): 4.30 h
- concentration at 180 min (male, CD-1, mouse, iv, read-out: brain concentration at 180 min post-dose): 15800 ± 800 ng/g
- Cmax (mouse, iv, male CD-1 mice): 50200 ± 3200 ng/g
